According to ChEMBL document CHEMBL5321237 (Eur J Med Chem, 2023):
pIC50, pKd: −log10 of the molar value. Converted amounts (≈) assume the structure as drawn. The source made the active and inactive calls. No cut-off for these calls is given here.

Experiments:
[1] = target: T1, Macrophage colony-stimulating factor 1 receptor (Mus musculus, UniProt P09581); experiment: Inhibition of CSF1-induced CSF1R signalling in mouse BMDM cells assessed as reduction in ERK1/2 phosphorylation preincubated for 30 mins followed by CSF1 addition and measured after 10 mins; format: cell-based
T1 sequence (P09581 whole entry): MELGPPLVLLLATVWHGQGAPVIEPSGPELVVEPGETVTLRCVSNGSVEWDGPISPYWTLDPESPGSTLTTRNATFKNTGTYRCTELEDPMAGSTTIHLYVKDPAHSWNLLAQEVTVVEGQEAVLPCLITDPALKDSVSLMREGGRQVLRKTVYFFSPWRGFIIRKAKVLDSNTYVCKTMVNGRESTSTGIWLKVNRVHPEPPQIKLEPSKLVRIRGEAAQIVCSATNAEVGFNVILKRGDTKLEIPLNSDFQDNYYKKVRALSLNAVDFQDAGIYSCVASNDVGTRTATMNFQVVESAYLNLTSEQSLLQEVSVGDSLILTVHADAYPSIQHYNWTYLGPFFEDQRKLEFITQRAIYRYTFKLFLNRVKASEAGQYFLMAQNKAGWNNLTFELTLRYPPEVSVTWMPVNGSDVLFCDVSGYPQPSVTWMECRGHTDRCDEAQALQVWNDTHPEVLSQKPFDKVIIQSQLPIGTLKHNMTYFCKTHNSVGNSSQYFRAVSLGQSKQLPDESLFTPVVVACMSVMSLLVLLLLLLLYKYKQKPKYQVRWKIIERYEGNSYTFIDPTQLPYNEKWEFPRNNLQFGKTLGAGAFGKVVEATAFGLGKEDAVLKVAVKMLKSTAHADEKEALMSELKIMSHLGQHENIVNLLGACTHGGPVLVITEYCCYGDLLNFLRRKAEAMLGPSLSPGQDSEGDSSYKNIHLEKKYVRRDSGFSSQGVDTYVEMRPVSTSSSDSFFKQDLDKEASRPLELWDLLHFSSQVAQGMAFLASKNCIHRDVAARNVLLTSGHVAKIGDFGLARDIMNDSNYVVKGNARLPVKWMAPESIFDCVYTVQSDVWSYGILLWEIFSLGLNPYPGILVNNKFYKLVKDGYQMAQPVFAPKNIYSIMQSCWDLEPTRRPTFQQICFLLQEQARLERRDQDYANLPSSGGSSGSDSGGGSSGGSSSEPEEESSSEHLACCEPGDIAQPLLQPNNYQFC

[2] = Metabolic stability in human liver microsomes assessed as intrinsic clearance at 3 uM measured upto 50 mins by LC-MS analysis; format: ADME, Microsome
[3] = target: Epidermal growth factor receptor (Homo sapiens, UniProt P00533); experiment: Inhibition of EGFR (unknown origin) in presence of ATP
Sequence of Epidermal growth factor receptor (P00533 whole entry): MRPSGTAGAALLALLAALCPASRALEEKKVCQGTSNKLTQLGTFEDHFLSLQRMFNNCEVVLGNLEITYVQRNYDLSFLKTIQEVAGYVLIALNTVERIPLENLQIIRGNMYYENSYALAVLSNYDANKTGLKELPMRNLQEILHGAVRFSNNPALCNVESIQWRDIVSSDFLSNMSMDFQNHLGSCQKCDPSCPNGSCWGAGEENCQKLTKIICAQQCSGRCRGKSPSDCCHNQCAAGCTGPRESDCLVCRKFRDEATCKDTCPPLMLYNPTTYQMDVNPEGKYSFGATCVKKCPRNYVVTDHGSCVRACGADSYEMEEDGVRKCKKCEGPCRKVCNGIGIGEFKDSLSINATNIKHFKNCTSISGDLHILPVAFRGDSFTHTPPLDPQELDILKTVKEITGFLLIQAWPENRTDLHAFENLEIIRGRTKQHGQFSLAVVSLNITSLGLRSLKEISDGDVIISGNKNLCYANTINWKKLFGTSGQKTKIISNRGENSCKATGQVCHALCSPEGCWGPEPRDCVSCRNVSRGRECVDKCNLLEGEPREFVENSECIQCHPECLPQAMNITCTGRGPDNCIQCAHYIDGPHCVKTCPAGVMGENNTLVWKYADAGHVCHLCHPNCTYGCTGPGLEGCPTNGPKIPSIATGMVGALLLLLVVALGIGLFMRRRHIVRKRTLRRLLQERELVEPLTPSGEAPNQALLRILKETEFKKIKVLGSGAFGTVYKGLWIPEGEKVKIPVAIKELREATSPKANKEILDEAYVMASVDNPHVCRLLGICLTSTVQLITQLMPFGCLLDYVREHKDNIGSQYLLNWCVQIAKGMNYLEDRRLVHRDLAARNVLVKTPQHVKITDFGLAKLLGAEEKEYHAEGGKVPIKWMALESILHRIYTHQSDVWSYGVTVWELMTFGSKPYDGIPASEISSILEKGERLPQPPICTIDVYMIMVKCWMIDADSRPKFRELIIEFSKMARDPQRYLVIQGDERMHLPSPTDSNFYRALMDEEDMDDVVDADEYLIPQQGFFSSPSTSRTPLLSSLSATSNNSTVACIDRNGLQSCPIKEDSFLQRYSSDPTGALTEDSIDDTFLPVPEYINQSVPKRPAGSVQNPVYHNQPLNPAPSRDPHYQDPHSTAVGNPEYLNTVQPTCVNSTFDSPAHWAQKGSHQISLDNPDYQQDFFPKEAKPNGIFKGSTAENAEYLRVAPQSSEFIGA

[4] = Metabolic stability in mouse liver microsomes assessed as intrinsic clearance at 3 uM measured upto 50 mins by LC-MS analysis; format: ADME, Microsome
[5] = target: T2, Macrophage colony-stimulating factor 1 receptor (Mus musculus) (UniProt P09581); experiment: Inhibition of CSF1-induced CSF1R signalling in mouse BMDM cells assessed as reduction in ERK1/2 phosphorylation by measuring fold change preincubated for 30 mins followed by CSF1 addition and measured after 10 mins relative to pexidartinib; format: cell-based; conditions: time 40.0 min
T2 sequence (whole entry): T1 sequence (P09581 whole entry)

BaF3 = experiment: Antiproliferative activity against BaF3 cells expressing human CSF1R assessed as suppression of cell proliferation incubated for 72 hrs by Cell Titer Glo assay; format: functional, cell-based; conditions: Mus musculus, BaF3, 72 h
[6] = Clearance in C57BLKS mouse at 1 mg/kg, iv administered as cassette dose measured for 480 mins by LC-MS analysis; format: ADME, organism-based; conditions: in vivo; for clearance: C57BLKS
[7] = Kinetic aqueous solubility of compound at pH 7.4 at 500 uM incubated for 90 mins by spectrophotometry analysis; format: physicochemical; conditions: buffer, read-out: Kinetic_solubility
[8] = Observed volume of distribution at steady state in C57BLKS mouse at 1 mg/kg, iv administered as cassette dose measured for 480 mins by LC-MS analysis; format: ADME, organism-based; conditions: in vivo, read-out: Vdss
[9] = test system: Osteoclast precursor cell; conditions: Homo sapiens, dose 10.0 nM, time > 7.0 day
[10] = Stability in mouse plasma assessed as compound remaining at 5 uM incubated for 1 hr by LC-MS analysis; format: ADME, cell-free; conditions: read-out: Stability
[11] = Inhibition of […] induced osteoclast differentiation in human Osteoclast precursor cells assessed as suppression of osteoclast formation at 100 to 1000 nM incubated for over 7 days with media replacement for every 3 days by TRITC-phalloidin/Hoechst staining based microscopic analysis relative to control; format: functional, Osteoclast precursor cell; conditions: dose 100-1000 nM, time > 7 day
[12] = test system: Osteoclast precursor cell; conditions: Homo sapiens, dose 100-1000 nM, time > 7.0 day
[13] = target: T3, Macrophage colony-stimulating factor 1 receptor (Homo sapiens, UniProt P07333); experiment: Inhibition of CSF1R (unknown origin) using FRET-peptide as substrate incubated in presence of ATP by FRET based Z-LYTE assay
T3 sequence (P07333 whole entry): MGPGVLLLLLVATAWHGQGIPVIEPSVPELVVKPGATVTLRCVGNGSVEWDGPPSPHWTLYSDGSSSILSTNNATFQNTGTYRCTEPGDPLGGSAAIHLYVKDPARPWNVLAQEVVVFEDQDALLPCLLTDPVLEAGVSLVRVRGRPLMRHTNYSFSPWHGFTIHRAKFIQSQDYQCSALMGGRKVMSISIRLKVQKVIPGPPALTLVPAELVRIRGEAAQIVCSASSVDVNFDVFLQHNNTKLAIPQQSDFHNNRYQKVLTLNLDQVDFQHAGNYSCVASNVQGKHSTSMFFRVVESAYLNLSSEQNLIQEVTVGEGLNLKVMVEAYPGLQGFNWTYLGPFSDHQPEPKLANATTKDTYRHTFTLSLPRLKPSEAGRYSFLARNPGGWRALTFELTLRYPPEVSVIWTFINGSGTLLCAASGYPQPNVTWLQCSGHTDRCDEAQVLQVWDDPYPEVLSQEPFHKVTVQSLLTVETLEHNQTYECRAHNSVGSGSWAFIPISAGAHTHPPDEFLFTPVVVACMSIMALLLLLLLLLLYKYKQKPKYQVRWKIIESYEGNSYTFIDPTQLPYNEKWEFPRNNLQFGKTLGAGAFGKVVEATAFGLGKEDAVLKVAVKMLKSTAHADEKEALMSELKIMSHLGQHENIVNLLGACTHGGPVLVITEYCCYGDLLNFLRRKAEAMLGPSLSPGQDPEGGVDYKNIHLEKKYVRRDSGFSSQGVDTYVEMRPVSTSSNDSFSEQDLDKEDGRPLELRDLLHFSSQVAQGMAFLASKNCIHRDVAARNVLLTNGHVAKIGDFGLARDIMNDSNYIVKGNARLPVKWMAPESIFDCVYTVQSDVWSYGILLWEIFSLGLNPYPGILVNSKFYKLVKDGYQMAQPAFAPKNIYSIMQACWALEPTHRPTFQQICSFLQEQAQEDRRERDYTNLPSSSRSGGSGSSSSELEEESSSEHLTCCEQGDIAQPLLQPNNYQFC

[14] = Metabolic stability in cryopreserved pooled ICR/CD-1 mouse hepatocytes assessed as intrinsic clearance measured per 10^6 cells at 3 uM measured for 60 mins by LC-MS/MS analysis; format: ADME, cell-based, Hepatocyte; conditions: read-out: CLH
[15] = Half life in C57BLKS mouse at 1 mg/kg, iv administered as cassette dose measured for 480 mins by LC-MS analysis; format: ADME, organism-based; conditions: in vivo
[16] = Microsomal stability mouse liver microsomes assessed as compound remaining at 5 uM incubated for 1 hr by LC-MS analysis; format: ADME, Microsome; conditions: read-out: Stability
[17] = Plasma protein binding in mouse assessed as bound fraction at 5 uM incubated for 6 hrs by equilibrium dialysis based LC-MS analysis; format: ADME, cell-free; conditions: read-out: PPB (converted)
[18] = target: T3, Macrophage colony-stimulating factor 1 receptor; experiment: Binding affinity to non-autoinhibited form of CSF1R (unknown origin) assessed as dissociation constant incubated for 1 hr by qPCR based Hill equation analysis
[19] = target: T3, Macrophage colony-stimulating factor 1 receptor; experiment: Binding affinity to autoinhibited form of CSF1R (unknown origin) assessed as dissociation constant incubated for 1 hr by qPCR based Hill equation analysis
[20] = target: T3, Macrophage colony-stimulating factor 1 receptor; experiment: Selectivity index, ratio of Kd for non-autoinhibited form of CSF1R (unknown origin) to Kd for autoinhibited form of CSF1R (unknown origin)

CN(Cc1ccccc1)c1ncnc2[nH]c(-c3ccc(CO)cc3)nc12
pIC50 [1]: 6.48 | CLint [2]: 14.4 µL/min/mg | pIC50 [3]: 6.96 | CLint [4]: 57.8 µL/min/mg | fold change (FC) [5]: 2.9

FC(F)(F)c1ccc(CNc2ccc(Cc3c[nH]c4ncc(Cl)cc34)cn2)cn1 [PEXIDARTINIB]
pIC50 (BaF3): 7.22 | clearance [6]: 0.833 mL/min/kg | solubility kinetic at […], 500 µM [7]: 20.7 µM (≈ 8.65 µg/mL) | Vd [8]: 0.4 L/kg | pIC50 [1]: 7.00 | inhibition [9]: Active | remaining at 1 h, 5 µM [10]: 100% | inhibition (INH) [11]: 100% | inhibition [12]: Active

CN(Cc1cccs1)c1ncnc2[nH]c(-c3ccc(CO)cc3)nc12
pIC50 [13]: 8.54

Cc1cccc(CN(C)c2ncnc3[nH]c(-c4ccc(CO)cc4)nc23)c1
pIC50 [13]: 8.89

CN(Cc1ccncc1)c1ncnc2[nH]c(-c3ccc(CO)cc3)nc12
pIC50 [13]: 8.66

CN(CC1CCOCC1)c1ncnc2[nH]c(-c3ccc(CO)cc3)nc12
pIC50 (BaF3): 5.51 | CL ([6]; iv, 1 mg/kg, 8 h): 3300 mL/min/kg | solubility kinetic at […], 500 µM [7]: 55.4 µM (≈ 19.6 µg/mL) | Vd [8]: 80 L/kg | pIC50 [1]: 7.08 | CLint [2]: 15.8 µL/min/mg | inhibition [9]: Active | CLint [4]: 58.7 µL/min/mg | hepatocyte CLint at 3 µM [14]: 148 µL/min/1e6 cells | remaining at 1 h, 5 µM [10]: 100% | inhibition (INH) [11]: 100% | inhibition [12]: Active | half-life [15]: 24 min | remaining at 1 h, 5 µM [16]: 83% | fraction unbound at 6 h, 5 µM [17]: 0.44 | pKd [18]: 7.10 | pKd [19]: 8.35

CN(CC1CCCCC1)c1ncnc2[nH]c(-c3ccc(CO)cc3)nc12
solubility kinetic at […], 500 µM [7]: 0.5 µM (≈ 0.176 µg/mL) | pIC50 [1]: 7.00 | CLint [2]: 22.3 µL/min/mg | pIC50 [13]: 9.00 | fold change (FC) [5]: 0.9

CN1CCCC(CN(C)c2ncnc3[nH]c(-c4ccc(CO)cc4)nc23)C1 (stereo unspecified)
solubility kinetic at […], 500 µM [7]: 469 µM (≈ 172 µg/mL) | pIC50 [1]: < 6.52 | CLint [2]: 3.6 µL/min/mg

Cc1ccc(CN(C)c2ncnc3[nH]c(-c4ccc(CO)cc4)nc23)cc1
pIC50 [13]: 7.96

CN(CC1CCN(Cc2ccccc2)CC1)c1ncnc2[nH]c(-c3ccc(CO)cc3)nc12
solubility kinetic at […], 500 µM [7]: 33.5 µM (≈ 14.8 µg/mL) | pIC50 [1]: < 6.52 | CLint [2]: 22.1 µL/min/mg

CN(CC1CCOCC1)c1ncnc2[nH]c(-c3ccc(CCO)cc3)nc12
pIC50 (BaF3): 5.82 | clearance [6]: 317 mL/min/kg | solubility kinetic at […], 500 µM [7]: 37.5 µM (≈ 13.8 µg/mL) | Vd [8]: 9 L/kg | pIC50 [1]: 6.97 | CLint [2]: 14.7 µL/min/mg | inhibition [9]: Active | CLint [4]: 30.2 µL/min/mg | hepatocyte CLint at 3 µM [14]: 22 µL/min/1e6 cells | remaining at 1 h, 5 µM [10]: 97.9% | inhibition (INH) [11]: 100% | inhibition [12]: Active | fold change (FC) [5]: 0.7 | half-life [15]: 24 min | remaining at 1 h, 5 µM [16]: 97.2% | fraction unbound at 6 h, 5 µM [17]: 0.366 | pKd [18]: 7.44 | pKd [19]: 9.30 | Ratio [20]: 72

CN(CC1CCCCO1)c1ncnc2[nH]c(-c3ccc(CO)cc3)nc12 (stereo unspecified)
solubility kinetic at […], 500 µM [7]: 9.2 µM (≈ 3.25 µg/mL) | pIC50 [1]: < 6.52 | CLint [2]: 24.2 µL/min/mg

CN(CC1CCOC1)c1ncnc2[nH]c(-c3ccc(CO)cc3)nc12 (stereo unspecified)
solubility kinetic at […], 500 µM [7]: 131 µM (≈ 44.5 µg/mL) | pIC50 [1]: < 6.52 | CLint [2]: 20.1 µL/min/mg

CN(Cc1ccccn1)c1ncnc2[nH]c(-c3ccc(CO)cc3)nc12
pIC50 [13]: 8.14

CN(CC1CCCO1)c1ncnc2[nH]c(-c3ccc(CO)cc3)nc12 (stereo unspecified)
solubility kinetic at […], 500 µM [7]: 39.7 µM (≈ 13.5 µg/mL) | pIC50 [1]: < 6.52 | CLint [2]: 33.2 µL/min/mg

CN(Cc1ccccc1)c1ncnc2[nH]c(-c3ccccc3)nc12
pIC50 [13]: 8.57
